Measured values published in patent publication US9918972B2, “Treatment of leukemia with artemisinin derivatives and combinations with other antineoplastic agents” (UNIVERSITY OF MARYLAND, BALTIMORE, priority 2014, dated 2018).

Columns and labels:
KOPN8 = test: Kinase inhibitor drug combination screen (MTS, Bliss-independence analysis)
Excerpt: (§2) Hits were ranked by the observed inhibition over the Bliss independence prediction.
(§3) Combinations with positive values for this Bliss difference were considered synergistic, values near zero, additive, and negative values, antagonistic.

[1] = test system: MOLM14, Kasumi-1, KOPN8 and RCH-ACV leukemia cell lines; test: Kinase inhibitor drug combination screen, summary over the four leukemia cell lines; conditions: for No. Cell Lines: cell lines synergistically inhibited (>10% over Bliss) by drug 1 combined with AS and/or ART-838; for average inhibition over the Bliss prediction: plus ART-838, average over synergistic cell lines; for average inhibition over the Bliss independence prediction: average over synergistic cell lines; for synergy with AS or ART-838: screens in four human leukemia cell lines
Excerpt: as §2, §3

Kasumi-1 = test: Kinase inhibitor drug combination screen (MTS, Bliss-independence analysis); conditions: Kasumi-1, Drug 2 = ART-838 at approximate IC50, 48 h
Excerpt: as §2, §3

RCH-ACV = test: as above
MOLM14 and KOPN8 cells = test: Validation of ABT-199/ABT-737 + AS/ART-838 combinations, alamarBlue, Chou-Talalay; format: cell-based, human; conditions: MOLM14 and KOPN8, AS or ART-838 at IC50, 48 h
Procedure: FIGS. 10A-10B. Validation of cytotoxicity of ABT-199/ABT-737+AS/ART-838 combinations by alamarBlue assay. […] Each experiment was performed in triplicate. All data points between 0.1-99.9% growth inhibition were analyzed using the methods of Chou and Talalay and combination indices (CIs) calculated. CIs were graphed against the fractional effect (FE; the fraction of cells inhibited at each concentration). CI<1 indicates synergy, CI=1, additivity, CI>1, antagonism.
(§1) MOLM14 or KOPN8 cells were seeded in 96-well plates as described above for alamarBlue assays. Cells were treated with a certain concentrations of AS, or ART-838 or DHA, in combination with a range of concentrations of ABT-199 or ABT-263 or ABT-737. AlamarBlue assays were performed as described above. Each set of drugs or drug combinations was tested in triplicate. Chou-Talalay drug combination analysis was performed as above.
Cytotoxicity of the individual drugs and combinations was assessed using alamarBlue fluorescence, a more sensitive indicator of cell metabolism (as a surrogate for cell number) than MTS.
Drug combination interactions were assessed using the methods of Chou-Talalay, a more robust measure of synergy than the Bliss independence model. The Chou-Talalay method, however, can only be used at drug effect levels from 0.1-99.9%. […]

MOLM14 = test: Kinase inhibitor drug combination screen (MTS, Bliss-independence analysis)
Excerpt: as §2, §3

[2] = test system: chemotherapy (doxorubicin, hydroxyurea, methotrexate, or vincristine)-resistant CEM (T-ALL) sub-lines; conditions: reference [27]; cited from earlier work
MOLM14 cells [3] = test: ROS - mitochondrial superoxide (MitoSOX flow cytometry); format: cell-based, human; conditions: MOLM14, drug alone, 2.25x IC50, 16 h
Procedure: FIGS. 4A-4D. […] CIs were computed as described above. CI<1 indicates synergy, CI=1, additivity, CI>1, antagonism. […] Cells were then loaded with 5 μM MitoSox for 30 min, washed, and analyzed by flow cytometry for MitoSox fluorescence (indicating mitochondrial superoxide) in the FL2 channel. […] Error bars represent the SEM of three independent experiments.

MOLM14 cells [4] = test: Apoptosis (APC Annexin-V / 7-AAD, FACS); format: cell-based, human; conditions: MOLM14, ABT-199 plus AS or ART-838, 24 hrs
Procedure: FIG. 13. […] MOLM14 cells were treated with ABT-199 and/or AS (upper panel) or ART-838 (lower panel) for 24 hrs. Cells were stained with APC Annexin-V and 7-AAD and analyzed by fluorescence-activated cell sorting (FACS) to assess apoptotic cells. The early apoptotic population was defined as APC Annexin-V (+) and 7-AAD (−). The total apoptotic population was defined as APC Annexin-V (+). Each experiment was performed in triplicate. […].
Drug or vehicle-treated cells (1-5×10^5/sample) were washed with cold PBS, resuspended in Annexin-V binding buffer, co-stained with 5 μl each of APC Annexin-V and 7-AAD viability dye (all from BioLegend, San Diego, Calif.), and incubated for 15 minutes at room temperature in the dark then stored on ice until analysis (<30 minutes). Stained cells were analyzed using the FL3 and FL4 channels of an Accuri C6 flow cytometer. ˜10,000 non-debris cellular events were collected per sample and analyzed, as for cell cycle. The Annexin-V^−/7-AAD^− population was designated “viable,” the Annexin-V^+/7-AAD^− population was designated “early apoptotic,” and the Annexin-V^+/7-AAD^+ population was designated “dying/dead” [47].

MOLM14 cells [5] = test: Combinations of AS, ART-838 or DHA with BCL-2 inhibitors, alamarBlue, 48 h; format: cell-based, human
Procedure: FIGS. 11A-11C. Antileukemic efficacy of ABT-199, ABT-263 or ABT-737 combined with AS or ART-838. […] Each experiment was performed in triplicate.
FIG. 12. […] MOLM14 cells were treated with increasing concentrations of ABT-199, ABT-263 or ABT-737 without or with DHA (500 nM and 1 μM) for 48hrs. Then cytotoxicity was evaluated by alamarBlue assays. Each experiment was performed in triplicate.
as §1

[6] = KOPN8, Drug 2 = ART-838 at approximate IC50, 48 h
[7] = KOPN8, Drug 2 = AS at approximate IC50, 48 h
[8] = Drug 2 = ART-838 at approximate IC50, 48 h
[9] = Drug 2 = AS at approximate IC50, 48 h
[10] = MOLM14, Drug 2 = ART-838 at approximate IC50, 48 h
[11] = MOLM14, Drug 2 = AS at approximate IC50, 48 h

Compound | fractional inhibition over Bliss prediction (KOPN8; [6]) | fractional inhibition over Bliss prediction (KOPN8; [7]) | No. Cell Lines [1] | cell lines in which combination was synergistic ([1]; plus ART-838) | average inhibition over the Bliss prediction [1] | cell lines in which combination was synergistic ([1]; plus AS) | average inhibition over the Bliss independence prediction ([1]; plus AS) | synergy with AS or ART-838 [1] | fractional inhibition over Bliss prediction (Kasumi-1) | fractional inhibition over Bliss prediction (RCH-ACV; [8]) | fractional inhibition over Bliss prediction (RCH-ACV; [9]) | cytotoxic efficacy on addition of AS or ART-838 (MOLM14 and KOPN8 cells) | fractional inhibition over Bliss prediction (MOLM14; [10]) | fractional inhibition over Bliss prediction (MOLM14; [11]) | efficacy against resistant sub-lines vs parental line [2] | mitochondrial superoxide (MitoSox MFI) (MOLM14 cells [3]) | induction of apoptosis (MOLM14 cells [4]) | leukemia cell growth inhibition (MOLM14 cells [5]; MOLM14, 37 nM ABT-199 alone) | growth inhibition (MOLM14 cells [5]; MOLM14, 37 nM ABT-199 together with ART-838 25 nM) | growth inhibition (MOLM14 cells [5]; MOLM14, 37 nM ABT-199 together with AS 825 nM)
CN(C)CC[C@H](CSc1ccccc1)Nc1ccc(S(=O)(=O)NC(=O)c2ccc(N3CCN(Cc4ccccc4-c4ccc(Cl)cc4)CC3)cc2)cc1[N+](=O)[O-] [ABT-737] | KOPN8 (0.28), | KOPN8 (0.25), | 4/4 | 4/4 | 24% | 3/4 | 33% | Particularly strong synergy | Kasumi-1 (0.11), | RCH-ACV (0.24) | RCH-ACV (0.23) | potently increased the efficacy | MOLM14 (0.34), | MOLM14 (0.50), |  |  |  |  |  | 
C[C@H]1[C@H](OC(=O)CCC(=O)O)O[C@@H]2O[C@@]3(C)CC[C@H]4[C@H](C)CC[C@@H]1[C@@]24OO3 [AS, artesunate] |  |  |  |  |  |  |  |  |  |  |  |  |  |  | as effective | increased |  |  |  | 
CC1(C)CCC(CN2CCN(c3ccc(C(=O)NS(=O)(=O)c4ccc(NCC5CCOCC5)c([N+](=O)[O-])c4)c(Oc4cnc5[nH]ccc5c4)c3)CC2)=C(c2ccc(Cl)cc2)C1 [ABT-199] | KOPN8 (0.11), | KOPN8 (0.15), | 3/4 | 3/4 | 21% | 3/4 | 17% | Particularly strong synergy |  | RCH-ACV (0.35) | RCH-ACV (0.16) | potently increased the efficacy | MOLM14 (0.18), | MOLM14 (0.20), |  |  | cooperated to induce apoptosis | did not inhibit | 100% | 100%
